According to patent US20230049619A1, “SIGMA-1 RECEPTOR LIGANDS AND USES THEREOF” (UNIVERSITE DE STRASBOURG, priority 2019, published 2023):
Where a name gives a salt, the structure may show the parent alone.

Tests used:
sigma-1 receptor = biological target: T1, sigma-1 receptor (Homo sapiens, UniProt Q99720); experiment: sigma-1 receptor binding assay ([3H](+)-pentazocine displacement, Jurkat cell membranes); conditions: [3H](+)-pentazocine 15 nM, 37° C., 2 hours
T1 construct: incubing Jurkat cell membranes ([…] protein per tube) with [^3H](+)-pentazocine; endogenous in cells; host or cells: Jurkat cell membranes
Experimental: The sigma-1 receptor binding assays were performed according to Ganapathy et al. (J Pharmacol Exp Ther 28:251-60, 1999). The sigma-1 receptor binding assay was carried out by incubing Jurkat cell membranes ([…] protein per tube) with [^3H](+)-pentazocine a selective sigma-1 radiotracer (15 nM) and a range of concentration of tested compounds, at 37° C. for 2 hours in 5 mM tris/HCl buffer (pH=7.4). The inhibition of [^3H](+)-pentazocine binding assay is mainly used to determine the inhibition constant (Ki) of potential sigma-1 receptor ligands. These assays are performed with a single concentration of [^3H](+)-pentazocine at a concentration near its KD and increasing concentrations of non-radioactive ligands.

T1 sequence (Q99720 whole entry): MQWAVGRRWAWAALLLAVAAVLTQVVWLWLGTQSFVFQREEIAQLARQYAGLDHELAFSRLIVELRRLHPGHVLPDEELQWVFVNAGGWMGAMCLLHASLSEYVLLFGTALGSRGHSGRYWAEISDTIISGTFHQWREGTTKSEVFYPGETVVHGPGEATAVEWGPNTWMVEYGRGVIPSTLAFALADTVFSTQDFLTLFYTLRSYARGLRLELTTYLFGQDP

| inhibition at 0.01 µM (sigma-1 receptor; tested compound 10 nM) | SMILES | other results |
| --- | --- | --- |
| 1.3% | O=c1c(-c2ccccc2)ccnn1CC1CCN(CC(O)c2ccc(F)cc2)CC1 (stereo not shown) [cpd 23, 2-((1-(2-(4-fluorophenyl)-2-hydroxyethyl)piperidin-4-yl)methyl)-4-phenylpyridazin-3(2H)-one hydrochloride] | – |
| 6.2% | O=C(CN1CCC(Cn2nccc(-c3ccccc3)c2=O)CC1)c1ccc(F)cc1 [cpd 24, 2-((1-(2-(4-fluorophenyl)-2-oxoethyl)piperidin-4-yl)methyl)-4-phenylpyridazin-3(2H)-one hydrochloride] | – |
| 15.3% | O=c1c(-c2ccccc2)ccnn1CC1CCN(CC(O)c2ccccc2)CC1 (stereo not shown) [cpd 25, 2-((1-(2-hydroxy-2-phenylethyl)piperidin-4-yl)methyl)-4-phenylpyridazin-3(2H)-one hydrochloride] | – |
| 80.9% | O=c1c(-c2ccccc2)ccnn1CCC1CCN(Cc2ccccc2)CC1 [cpd 26, 2-(2-(1-benzylpiperidin-4-yl)ethyl)-4-phenylpyridazin-3(2H)-one hydrochloride] | inhibition at 0.1 µM (sigma-1 receptor; tested compound 100 nM): 95% |
| 61.7% | O=c1cc(-c2ccccc2)cnn1CCC1CCN(Cc2ccccc2)CC1 [cpd 27, 2-(2-(1-benzylpiperidin-4-yl)ethyl)-5-phenylpyridazin-3(2H)-one hydrochloride] | – |
| 37% | CC(C1CCN(Cc2ccccc2)CC1)n1nccc(-c2ccccc2)c1=O (stereo not shown) [cpd 28, 2-(1-(1-benzylpiperidin-4-yl)ethyl)-4-phenylpyridazin-3(2H)-one hydro chloride] | – |
| 10.6% | O=c1c(-c2ccccc2)ccnn1CC1(O)CCN(Cc2ccccc2)CC1 [cpd 29, 2-((1-benzyl-4-hydroxypiperidin-4-yl)methyl)-4-phenylpyridazin-3(2H)-one hydrochloride] | – |
| – | COc1ccc(-c2ccnn(C3CCN(Cc4ccccc4)CC3)c2=O)cc1 [cpd 30, 2-(1-benzylpiperidin-4-yl)-4-(4-methoxyphenyl)pyridazin-3(2H)-one hydrochloride] | inhibition at 0.1 µM (sigma-1 receptor; tested compound 100 nM): 75.8% |
| – | O=c1c(-c2ccc(C(F)(F)F)cc2)ccnn1C1CCN(Cc2ccccc2)CC1 [cpd 31, 2-(1-benzylpiperidin-4-yl)-4-[4-(trifluoromethyl)phenyl]-2,3-dihydropyridazin-3-one hydro chloride] | inhibition at 0.1 µM (sigma-1 receptor; tested compound 100 nM): 80% |
| – | Cl.O=c1c(-c2ccc(Cl)cc2)ccnn1C1CCN(Cc2ccccc2)CC1 [cpd 32] | sigma-1 receptor % inhibition 100 nM (sigma-1 receptor; tested compound 100 nM): 91.1% |
| 51.2% | O=c1c(-c2ccccc2Cl)ccnn1CC1CCN(Cc2ccccc2)CC1 [cpd 33, 2-[(1-benzylpiperidin-4-yl)methyl]-4-(2-chlorophenyl)-2,3-dihydropyridazin-3-one hydrochloride] | – |
| 44.6% | O=c1c(-c2ccc(F)cc2)ccnn1CC1CCN(Cc2ccccc2)CC1 [cpd 35, 2-((1-benzylpiperidin-4-yl)methyl)-4-(4-fluorophenyl)pyridazin-3(2H)-one hydrochloride] | – |
| 44.2% | O=c1c(CCc2ccccc2)ccnn1CC1CCN(Cc2ccccc2)CC1 [cpd 36, 2-((1-benzylpiperidin-4-yl)methyl)-4-phenethylpyridazin-3(2H)-one] | – |
| 90% | O=c1c(CCc2ccccc2)ccnn1C1CCN(Cc2ccccc2)CC1 [cpd 37, 2-(1-benzylpiperidin-4-yl)-4-(2-phenylethyl)-2,3-dihydropyridazin-3-one hydrochloride] | inhibition at 0.1 µM (sigma-1 receptor; tested compound 100 nM): 100% |
| 52.3% | O=c1c(N2CCCCC2)ccnn1C1CCN(Cc2ccccc2)CC1 [cpd 38, 2-(1-benzylpiperidin-4-yl)-4-(piperidin-1-yl)-2,3-dihydropyridazin-3-one hydrochloride] | inhibition at 0.1 µM (sigma-1 receptor; tested compound 100 nM): 90% |
| – | Cl.O=c1c(N2CCCCC2)ccnn1CC1CCN(Cc2ccccc2)CC1 [cpd 39, 2-[(1-benzylpiperidin-4-yl)methyl]-4-(piperidin-1-yl)-2,3-dihydropyridazin-3-one hydro-chloride] | sigma-1 receptor % inhibition 10 nM (sigma-1 receptor; tested compound 10 nM): 51.8% |
| 8.2% | O=c1c(N2CCOCC2)ccnn1CC1CCN(Cc2ccccc2)CC1 [cpd 40, 2-((1-benzylpiperidin-4-yl)methyl)-4-morpholinopyridazin-3(2H)-one hydrochloride] | – |
| 5.2% | O=c1c(N2CCN(c3ccccc3)CC2)ccnn1CC1CCN(Cc2ccccc2)CC1 [cpd 41, 2-((1-benzylpiperidin-4-yl)methyl)-4-(4-phenylpiperazin-1-yl)pyridazin-3(2H)-one hydrochloride] | – |
| 25.4% | O=c1c(N2CCc3ccccc3C2)ccnn1CC1CCN(Cc2ccccc2)CC1 [cpd 42, 2-((1-benzylpiperidin-4-yl)methyl)-4-(3,4-dihydroisoquinolin-2(1H)-yl)pyridazin-3(2H)-one hydrochloride] | – |
| 86% | Cl.O=c1c(-c2ccccc2)cncn1C1CCN(Cc2ccccc2)CC1 [cpd 43, 3-(1-benzylpiperidin-4-yl)-5-phenylpyrimidin-4(3H)-one hydrochloride] | melting point: 144 °C; inhibition at 0.1 µM (sigma-1 receptor; tested compound 100 nM): 90% |
| 29.6% | O=c1c(-c2ccccc2)cccn1C1CCN(Cc2ccccc2)CC1 [cpd 44, 1-(1-benzylpiperidin-4-yl)-3-phenyl-1,2-dihydropyridin-2-one hydrochloride] | – |
| 75.7% | O=c1c(-c2ccccc2)cncn1CC1CCN(Cc2ccccc2)CC1 [cpd 45, 3-((1-benzylpiperidin-4-yl)methyl)-5-phenylpyrimidin-4(3H)-one] | – |
| 75.6% | O=c1c(-c2ccccc2)cccn1CC1CCN(Cc2ccccc2)CC1 [cpd 46, 1-[(1-benzylpiperidin-4-yl)methyl]-3-phenyl-1,2-dihydropyridin-2-one hydrochloride] | – |
